Data: publication PMC6205224 (Molecular cell, 2018)

Experiments:
Mtb RNAP σ^A holoenzyme = Mtb RNAP σ^A holoenzyme (Mycobacterium tuberculosis, UniProt P9WGY7+P9WGY9); test: Fluorescence-detected RNAP-inhibition assay; assay type: biochemical
[1] = target: E. coli RNAP σ^70 holoenzyme (Escherichia coli, UniProt P0A8T7+P0A8V2); test: Fluorescence-detected RNAP-inhibition assay; assay type: biochemical
[2] = target: S. aureus RNAP σ^A holoenzyme (Staphylococcus aureus, UniProt P47768+Q2G0N5); test: Fluorescence-detected RNAP-inhibition assay; assay type: biochemical; settings: Fig. S5
E. coli D21f2tolC [3] = assay type: cell-based, Escherichia coli; settings: for cross-resistance of E. coli Lpm-resistant mutants to the compound: chromosomal Lpm-resistant mutants of E. coli D21f2tolC, Fig. 2D; for MICwild-type: wild-type E. coli D21f2tolC, LB broth, 16 h at 37°C, growth inhibited by ≥90%
RNAP clamp = settings: interactions with SW1 and opposite face of SW2; ref Chakraborty et al., 2012; cited from earlier work
human RNAP I/II/III = test: Radiochemical RNAP-inhibition assay with HeLa nuclear extract; assay type: biochemical; settings: Fig. S4C
[4] = in vivo; cited from earlier work
E. coli strain D21f2tolC = test: Colony formation on LB-agar plates containing Lpm; assay type: cell-based, Escherichia coli; settings: 200 μg/ml ampicillin, 1 mM IPTG, 24-48 h at 37°C
[5] = target: T. thermophilus RNAP σ^A holoenzyme (Thermus thermophilus, UniProt Q8RQE8+Q8RQE9); test: Fluorescence-detected RNAP-inhibition assay; assay type: biochemical
E. coli D21f2tolC [6] = test: Checkerboard interaction assay; assay type: cell-based, Escherichia coli; settings: combination of Lpm and Rif; checkerboard format; Fig. 2F
[7] = target: E. coli RNAP σ^70 holoenzyme (Escherichia coli, UniProt P0A8T7+P0A8V2, D284F/E106F); test: Single-molecule FRET of RNAP clamp conformation; assay type: biochemical; settings: 20 μM Lpm; Fig. 4E-F

Compound	cross-resistance of E. coli Lpm-resistant mutants to the compound (E. coli D21f2tolC [3])	MICwild-type (E. coli D21f2tolC [3]) [µg/mL]	further results
4"-O-benzyl-Lpm [a1]			potency in inhibiting Mtb RNAP relative to Lpm (Mtb RNAP σ^A holoenzyme): within approximately an order of magnitude of that of Lpm; potency in inhibiting Escherichia coli RNAP relative to Lpm ([1]; Fig. S5): equal to that of Lpm; potency in inhibiting S. aureus RNAP relative to Lpm [2]: within approximately an order of magnitude of that of Lpm
ONC(=Nc1ccccc1)c1cccc(C(F)(F)F)c1 [CBR, CBR703]	Absence of significant cross-resistance	6.25	
C/C=C/C/C=C(\C)C(O)CC/C(C)=C/C=C(\C)C(=O)c1c(O)cc([C@H](C)CC/C=C/NC(=O)OC)oc1=O (some centres unmarked) [Cor, corallopyronin]			effect on RNAP clamp conformation (RNAP clamp): trap a closed-clamp state
CCc1c(Cl)c(O)c(Cl)c(O)c1C(=O)O[C@H]1[C@H](O)[C@H](OC)[C@H](OC/C2=C\C=C\C[C@H](O)/C(C)=C/[C@H](CC)[C@@H](O[C@@H]3OC(C)(C)[C@@H](OC(=O)C(C)C)[C@H](O)[C@@H]3O)/C(C)=C/C(C)=C/C[C@@H]([C@@H](C)O)OC2=O)O[C@@H]1C [Lpm, lipiarmycin A3]		1.56	ability to inhibit human RNAP I, II, and III (human RNAP I/II/III): not human RNAP I, II, and III; cross-resistance of E. coli Rif-, GE/PUM-, Sal-, CBR-, and Stl-resistant mutants to Lpm (E. coli D21f2tolC [3]; E. coli D21f2tolC derivatives, Fig. 2E): Absence of significant cross-resistance; IC50 [1]: 8 µM; systemic bioavailability [4]: no systemic bioavailability; minimal concentration that prevents colony formation by wild-type transformants (E. coli strain D21f2tolC): 5 µg/mL; IC50 [5]: 200 µM; antibacterial interaction of Lpm and Rif when co-administered (E. coli D21f2tolC [6]): additive antibacterial activity; effect on RNAP clamp conformation in solution [7]: traps the open-clamp state
NC(=O)CC[C@@H](C(=O)NC[C@H]1O[C@@H](c2c[nH]c(=O)[nH]c2=O)[C@H](O)[C@@H]1O)N(O)C(=O)CN=C(N)N [PUM, pseudoridimycin]	Absence of significant cross-resistance	400	
CO[C@H]1/C=C/O[C@@]2(C)Oc3c(C)c(O)c4c(O)c(c(/C=N/N5CCN(C)CC5)c(O)c4c3C2=O)NC(=O)/C(C)=C\C=C\[C@H](C)[C@H](O)[C@@H](C)[C@@H](O)[C@@H](C)[C@H](OC(C)=O)[C@@H]1C [Rif, rifampin]	Absence of significant cross-resistance	0.20	
C/C(=C\Cc1ccccc1)CCC(=O)C[C@H]1C[C@H](O)C/C(C)=C/C/C=C/C/C(CC(=O)O)=C\C(=O)O1 [Rip, ripostatin]			effect on RNAP clamp conformation (RNAP clamp): trap a closed-clamp state
CNC(=O)[C@@H](C)[C@H]1C(=O)/C(=C(O)/C=C/C(C)=C/[C@@H](C)[C@H]2O[C@@]3(C)O[C@H](C=C[C@@]34CO4)[C@@H]2C)C(=O)N1[C@@H]1CC[C@H](O)[C@H](C)O1 [Stl, streptolydigin]	Absence of significant cross-resistance	3.13	
GE23077	Absence of significant cross-resistance	500	
myxopyronin	Absence of significant cross-resistance	0.20	effect on RNAP clamp conformation (RNAP clamp): trap a closed-clamp state
salinamide	Absence of significant cross-resistance	0.049	
